Results from US10722464B2, “Compositions for delivery of drug combinations” (priority 2001, dated 2020).

Assay: in vivo
Conditions: SCID/rag2, mouse, plasma, iv, 10 mg/kg

- AUC: 112 ng·h/mL
SMILES: CCC1=C[C@@H]2CN(C1)Cc1c([nH]c3ccccc13)[C@@](C(=O)OC)(c1cc3c(cc1OC)N(C)[C@H]1[C@@](O)(C(=O)OC)[C@H](OC(C)=O)[C@]4(CC)C=CCN5CC[C@]31[C@@H]54)C2 [free vinorelbine, vinorelbine]
